In patent US20180289666A1, “FLAVONOLIGNANS FOR TREATMENT OF AUTOIMMUNE INFLAMMATORY DISEASES” (Macau University of Science and Technology, priority 2017, published 2018):

Experiments:
[1] = system: IL-1β, TNF-α, IL-33, MMP-9, TIMP-1 and PGE2 in serum; assay: Serum cytokine levels by ELISA in AIA rats; type: in vivo, Sprague-Dawley (SD) rats; conditions: 42 days treatment, versus vehicle-treated AIA rats
Procedure: Disease severity and progression were evaluated by measurements of both hind paw volumes with a plethysmometer chamber (Yiyan technology, Jinan, China) and body weight with a 0.1 g precision balance (Sartorius AG, Göttingen, Germany) every two or three days after arthritis induction. For evaluation the arthritic scoring, the lesions of four paws of each rat (i.e., the arthritic signs) were graded by two separate investigators with a semi-quantitative scale: 0 (normal), 4-8 (mild changes), 8-12 (moderate changes), and 12-16 (severe changes) (van Eden W., et. al., J. E. Coligan, Editor. 2001, John Wiley: New York. p. 1-11). Erythrocyte sedimentation rate (ESR) was determined with ICSH (International Council for Standardization in Hematology) selected method with little modifications at day 42. Briefly, 120 μl of blood sample was taken directly and put into 30 μl of 0.109 mol/L sodium citrate, mixed well, and then transferred into a 1.0 mm×100 mm capillary tube (West China Medical University, ChengDu, China). The tubes were held obliquely at an angle of […] and the erythrocyte sedimentation rate was recorded at 15 min. The cytokines levels including IL-1β, TNF-α, IL-17, IL-33, MMP-9, TIMP-1 and PGE2 in serum were measured using commercially available ELISA kits according to the manufacturers instructions. At the end of the experiments, rat knee images were measured (mean of three readings per knee, Meinaite digital calliper, ShangHai, China) using a IVIS Lumina XRMS Series (PerkinElmer, America) (Esser, R. E., et al., Arthritis Rheum, 1995, 38(1): p. 129-38).

AIA rats = assay: Plasma metabolomics by LC-MS/MS in AIA rats; type: in vivo, Sprague-Dawley (SD) rats
Procedure: The plasma sample (200 μL) was thawed on ice for 5 min prior to sample preparation and was mixed with 200 μL of 10 mM N-ethylmaleimide (NEM) in PBS buffer solution and 1000 μL of methanol containing internal standard (I.S.) Phe-d5 in 10 ng/ml. This mixture was incubated at −20° C. for 20 min, and then centrifuged at 12000 rpm for 10 min at 4° C. The supernatant was completely dried under nitrogen flow (Pressure Blowing Concentrator, Tokyo Rikakika, Tokyo, Japan) and reconstituted with distilled water.
LC-MS/MS analysis was performed on A Waters ACQUITY UPLC coupled with a 4000 Q-TRAP mass spectrometer. Chromatographic separation was carried on a Waters X Bridge™ BEH C18 analytical column (2.5 μm, 3.0×100 mm; Waters, Torrance, Calif.) with a mobile phase composed of 0.1% formic acid water (solvent A) and methanol (solvent B) which was running in a gradient program: 0-3.0 min (0%-1% B); 3.0-10.0 min (1-3% B); 10.0-14.0 min (3-50% B); 14.0-18.0 min (50-95% B); 18.0-22.0 min (95-0% B); followed by a 3-min re-equilibration step. The injection volume was 10 μl at 4° C. and flow rate was 0.6 ml/min. Electrospray (ESI) source were used in both positive and negative ion mode. […]
The normalized data were exported and further processed by PCA and PLS-DA using a multivariate analysis package SIMCA-P software (Umea, Sweden). Model quality was evaluated based on the relevant values of R^2 and Q^2. […]

## COc1cc([C@H]2Oc3cc([C@H]4Oc5cc(O)cc(O)c5C(=O)[C@@H]4O)ccc3O[C@@H]2CO)ccc1O (stereo in doubt) [Silybin]
[1]
  serum level of IL-1β: significant decrease
  serum level of MMP-9: significant decrease
  serum level of PGE2: significant decrease
  serum level of TIMP-1: significant decrease
  serum level of TNF-α: significant decrease
AIA rats
  metabolic network (plasma metabolites): effectively repair the metabolic network
